Results: patent US4443436A, “C-20-Modified macrolide derivatives of the macrolide antibiotics tylosin, desmycosin, macrocin, and lactenocin” (Eli Lilly and Company, priority 1982, dated 1984)
Converted amounts (≈) assume the structure as drawn. Read-outs that look alike come from different tables or passages of the source.

Assays:
[1] = test system: Staphylococcus epidermidis EPI1; experiment: MIC, standard agar-dilution assay, Staphylococcus epidermidis EPI1; type: cell-based
[2] = test system: Pasteurella multocida 17E; experiment: MIC, broth-dilution microtiter test, Pasteurella multocida 17E; type: cell-based; settings: Pasteurella multocida 17E, bovine isolate, broth-dilution microtiter
Excerpt: (§1) The MIC's in Table X were obtained using conventional broth-dilution microtiter tests.

Staphylococcus aureus = experiment: MIC, broth-dilution microtiter test, Staphylococcus aureus; type: cell-based
Excerpt: as §1

[3] = test system: Staphylococcus aureus S13E; experiment: MIC, standard agar-dilution assay, Staphylococcus aureus S13E; type: cell-based
Mycoplasma hyopneumoniae = experiment: MIC, broth-dilution microtiter test, Mycoplasma hyopneumoniae; type: cell-based
Excerpt: as §1

[4] = test system: Haemophilus influenzae Holt; experiment: MIC, standard agar-dilution assay, Haemophilus influenzae Holt; type: cell-based; settings: Haemophilus influenzae Holt, ampicillin-sensitive strain
[5] = test system: Haemophilus influenzae R252; experiment: MIC, standard agar-dilution assay, Haemophilus influenzae R252; type: cell-based
[6] = test system: Pasteurella hemolytica 22C; experiment: MIC, broth-dilution microtiter test, Pasteurella hemolytica 22C; type: cell-based; settings: Pasteurella hemolytica 22C, broth-dilution microtiter
Excerpt: as §1

[7] = test system: Staphylococcus aureus X400; experiment: MIC, standard agar-dilution assay, Staphylococcus aureus X400; type: cell-based
Mycoplasma gallisepticum = experiment: MIC, broth-dilution microtiter test, Mycoplasma gallisepticum; type: cell-based
Excerpt: as §1

Mycoplasma synoviae = experiment: MIC, broth-dilution microtiter test, Mycoplasma synoviae; type: cell-based
Excerpt: as §1

Streptococcus bovis 80 = experiment: MIC, broth-dilution microtiter test, Streptococcus bovis 80; type: cell-based
Excerpt: as §1

[8] = test system: Staphylococcus epidermidis EPI2; experiment: MIC, standard agar-dilution assay, Staphylococcus epidermidis EPI2; type: cell-based
[9] = test system: Streptococcus pyogenes C203; experiment: In vivo protection of mice experimentally infected with S. pyogenes C203; settings: mice, doses given 1 and 4 hours post-infection; for ED50: Streptococcus pyogenes
Experimental: The C-20 modified derivatives of this invention have shown in vivo antimicrobial activity against experimentally-induced infections in laboratory animals. When two doses of test compound were administered to mice experimentally infected with S. pyogenes C203, the activity observed was measured as an ED50 value [effective dose in mg/kg to protect 50% of the test animals: see Warren Wick, et al., J. Bacteriol. 81, 233-235 (1961)].

[10] = test system: Staphylococcus aureus X1.1; experiment: MIC, standard agar-dilution assay, Staphylococcus aureus X1.1; type: cell-based
[11] = test system: Streptococcus Group D X66; experiment: MIC, standard agar-dilution assay, Streptococcus Group D X66; type: cell-based
Mycoplasma hyorhinis = experiment: MIC, broth-dilution microtiter test, Mycoplasma hyorhinis; type: cell-based; settings: Mycoplasma hyorhinis, broth-dilution microtiter
Excerpt: as §1

[12] = test system: Pasteurella multocida 60A; experiment: MIC, broth-dilution microtiter test, Pasteurella multocida 60A; type: cell-based
Excerpt: as §1

Streptococcus Group 9960 = experiment: MIC, standard agar-dilution assay, Streptococcus Group 9960; type: cell-based; settings: Streptococcus Group 9960, agar dilution
[13] = test system: Streptococcus pyogenes C203; experiment: MIC, standard agar-dilution assay, Streptococcus pyogenes C203; type: cell-based
[14] = test system: Staphylococcus aureus V41; experiment: MIC, standard agar-dilution assay, Staphylococcus aureus V41; type: cell-based; settings: Staphylococcus aureus, V41
[15] = test system: Streptococcus pneumoniae Park I; experiment: microbe, parasite or virus in culture; type: cell-based; settings: Streptococcus pneumoniae
[16] = Mesomycoplasma hyopneumoniae, Mycoplasma hyopneumoniae, broth-dilution microtiter, read-out: MIC
[17] = Mycoplasmopsis synoviae, Mycoplasma synoviae, broth-dilution microtiter, read-out: MIC
[18] = Streptococcus equinus, Streptococcus bovis 80, broth-dilution microtiter, read-out: MIC
[19] = Staphylococcus epidermidis, EPI2
[20] = Pasteurella multocida 60A, avian isolate, broth-dilution microtiter, read-out: MIC
[21] = Staphylococcus epidermidis, EPI1

20-DH-20-O-(Phenylsulfinyl)desmycosin [Compound 25]
MIC ([1]; Staphylococcus epidermidis EPI1, agar dilution): 0.25 µg/mL
MIC [2]: 12.5 µg/mL
MIC (Staphylococcus aureus; broth-dilution microtiter): 0.39 µg/mL
MIC ([3]; Staphylococcus aureus S13E, agar dilution): 0.25 µg/mL
MIC (Mycoplasma hyopneumoniae; Mycoplasma hyopneumoniae, broth-dilution microtiter): 12.5 µg/mL
MIC ([4]; agar dilution): 8 µg/mL
MIC ([5]; Haemophilus influenzae R252, ampicillin-resistant strain, agar dilution): 4 µg/mL
MIC [6]: 12.5 µg/mL
MIC ([7]; Staphylococcus aureus X400, methicillin-resistant strain, agar dilution): 0.25 µg/mL
MIC (Mycoplasma gallisepticum; Mycoplasma gallisepticum, broth-dilution microtiter): < 0.05 µg/mL
MIC (Mycoplasma synoviae; Mycoplasma synoviae, broth-dilution microtiter): 0.19 µg/mL
MIC (Streptococcus bovis 80; Streptococcus bovis 80, broth-dilution microtiter): 3.12 µg/mL
MIC ([8]; Staphylococcus epidermidis EPI2, agar dilution): 0.12 µg/mL
ED50, Oral ([9]; oral): 45 mg/kg × 2
ED50, Subcutaneous ([9]; subcutaneous): 5.0 mg/kg × 2
MIC ([10]; Staphylococcus aureus X1.1, agar dilution): 0.25 µg/mL
MIC ([11]; Streptococcus Group D X66, agar dilution): 4 µg/mL
MIC (Mycoplasma hyorhinis): -- (Not active at 50 mcg/ml, the highest level tested)
MIC ([12]; Pasteurella multocida 60A, avian isolate, broth-dilution microtiter): 6.25 µg/mL
MIC (Streptococcus Group 9960): 4 µg/mL
MIC ([13]; Streptococcus pyogenes C203, agar dilution): 0.25 µg/mL

CCC1OC(=O)CC(O)C(C)C(OC2OC(C)C(OC3CC(C)(O)C(O)C(C)O3)C(N(C)C)C2O)C(CCSc2ccccc2)CC(C)C(=O)C=CC(C)=CC1COC1OC(C)C(O)C(OC)C1OC (stereo not shown) [Compound 6, 20-DH-DO-20-(Phenylthio)tylosin]
MIC ([1]; Staphylococcus epidermidis EPI1, agar dilution, read-out: MIC): 2 µg/mL (≈ 1.98 µM)
MIC ([2]; read-out: MIC): > 50 µg/mL
MIC (Staphylococcus aureus): 3.12 µg/mL (≈ 3.09 µM)
MIC ([3]; Staphylococcus aureus, S13E): 1 µg/mL (≈ 0.99 µM)
MIC [14]: 1 µg/mL (≈ 0.99 µM)
MIC (Mycoplasma hyopneumoniae; [16]): > 25 µg/mL
MIC ([4]; read-out: MIC): > 128 µg/mL
MIC ([5]; Haemophilus influenzae R252, ampicillin-resistant strain, read-out: MIC): > 128 µg/mL
MIC [15]: 64 µg/mL (≈ 63.3 µM)
MIC ([6]; read-out: MIC): > 50 µg/mL
MIC ([7]; Staphylococcus aureus X400, methicillin-resistant strain, agar dilution, read-out: MIC): 2 µg/mL (≈ 1.98 µM)
MIC (Mycoplasma gallisepticum; Mycoplasmoides gallisepticum, Mycoplasma gallisepticum, broth-dilution microtiter, read-out: MIC): 0.78 µg/mL (≈ 0.772 µM)
MIC (Mycoplasma synoviae; [17]): 12.5 µg/mL (≈ 12.4 µM)
MIC (Streptococcus bovis 80; [18]): > 50 µg/mL
MIC [8, 19]: 1 µg/mL (≈ 0.99 µM)
MIC ([10]; Staphylococcus aureus, X1.1): 1 µg/mL (≈ 0.99 µM)
MIC [11]: > 128 µg/mL
MIC (Mycoplasma hyorhinis; read-out: MIC): > 50 µg/mL
MIC [12, 20]: > 50 µg/mL
MIC (Streptococcus Group 9960; GROUP9960, read-out: MIC): > 128 µg/mL
MIC ([13]; Streptococcus pyogenes, C203): 4 µg/mL (≈ 3.96 µM)

CCC1OC(=O)CC(O)C(C)C(OC2OC(C)C(OC3CC(C)(O)C(O)C(C)O3)C(N(C)C)C2O)C(CCF)CC(C)C(=O)C=CC(C)=CC1COC1OC(C)C(O)C(OC)C1OC (stereo not shown) [Compound 8, 20-DH-DO-20-Fluoro-tylosin]
MIC [1, 21]: 1 µg/mL (≈ 1.09 µM)
MIC ([2]; read-out: MIC): > 50 µg/mL
MIC (Staphylococcus aureus): 1.56 µg/mL (≈ 1.7 µM)
MIC ([3]; Staphylococcus aureus, S13E): 1 µg/mL (≈ 1.09 µM)
MIC [14]: 1 µg/mL (≈ 1.09 µM)
MIC (Mycoplasma hyopneumoniae; [16]): > 25 µg/mL
MIC ([4]; read-out: MIC): > 128 µg/mL
MIC ([5]; Haemophilus influenzae, R252): 128 µg/mL (≈ 139 µM)
MIC [15]: 64 µg/mL (≈ 69.6 µM)
MIC ([6]; read-out: MIC): > 50 µg/mL
MIC ([7]; Staphylococcus aureus, X400): 2 µg/mL (≈ 2.17 µM)
MIC (Mycoplasma gallisepticum; Mycoplasmoides gallisepticum): 1.56 µg/mL (≈ 1.7 µM)
MIC (Mycoplasma synoviae; [17]): 12.5 µg/mL (≈ 13.6 µM)
MIC (Streptococcus bovis 80; [18]): > 50 µg/mL
MIC [8, 19]: 1 µg/mL (≈ 1.09 µM)
MIC ([10]; Staphylococcus aureus, X1.1): 1 µg/mL (≈ 1.09 µM)
MIC ([11]; Streptococcus Group D X66, agar dilution, read-out: MIC): > 128 µg/mL
MIC (Mycoplasma hyorhinis; read-out: MIC): > 50 µg/mL
MIC [12, 20]: > 50 µg/mL
MIC (Streptococcus Group 9960; GROUP9960, read-out: MIC): > 128 µg/mL
MIC ([13]; Streptococcus pyogenes C203, agar dilution, read-out: MIC): 4 µg/mL (≈ 4.35 µM)

CCC1OC(=O)CC(O)C(C)C(OC2OC(C)C(O)C(N(C)C)C2O)C(CCOc2cccc(N(C)C)c2)CC(C)C(=O)C=CC(C)=CC1COC1OC(C)C(O)C(OC)C1OC (stereo not shown) [Compound 39, 20-DH-20-O-[m-(N,N-Dimethylamino)phenyl]desmycosin]
MIC [1, 21]: 0.5 µg/mL (≈ 0.56 µM)
MIC ([2]; read-out: MIC): 25 µg/mL (≈ 28 µM)
MIC (Staphylococcus aureus): 6.25 µg/mL (≈ 7 µM)
MIC ([3]; Staphylococcus aureus, S13E): 0.5 µg/mL (≈ 0.56 µM)
MIC [14]: 0.5 µg/mL (≈ 0.56 µM)
MIC (Mycoplasma hyopneumoniae; Mesomycoplasma hyopneumoniae): 6.25 µg/mL (≈ 7 µM)
MIC ([5]; Haemophilus influenzae, R252): 16 µg/mL (≈ 17.9 µM)
MIC [15]: 1 µg/mL (≈ 1.12 µM)
MIC ([6]; read-out: MIC): > 50 µg/mL
MIC ([7]; Staphylococcus aureus, X400): 0.5 µg/mL (≈ 0.56 µM)
MIC (Mycoplasma gallisepticum; Mycoplasmoides gallisepticum): 1.56 µg/mL (≈ 1.75 µM)
MIC (Mycoplasma synoviae; Mycoplasmopsis synoviae): 1.56 µg/mL (≈ 1.75 µM)
MIC (Streptococcus bovis 80; Streptococcus equinus, 80): 1.56 µg/mL (≈ 1.75 µM)
MIC [8, 19]: 0.25 µg/mL (≈ 0.28 µM)
ED50 ([9]; C203, sc, subcutaneous, read-out: ED50, Subcutaneous): 6.7 mg/kg
ED50 ([9]; C203, oral, read-out: ED50, Oral): 19 mg/kg
MIC ([10]; Staphylococcus aureus, X1.1): 0.5 µg/mL (≈ 0.56 µM)
MIC [11]: 4 µg/mL (≈ 4.48 µM)
MIC (Mycoplasma hyorhinis; read-out: MIC): 25 µg/mL (≈ 28 µM)
MIC ([12]; Pasteurella multocida, 60A): 12.5 µg/mL (≈ 14 µM)
MIC (Streptococcus Group 9960; GROUP9960, read-out: MIC): 8 µg/mL (≈ 8.96 µM)
MIC ([13]; Streptococcus pyogenes, C203): 0.25 µg/mL (≈ 0.28 µM)
